# In patent US6403343B2, “Method of producing a taxane-type diterpene and a method of obtaining cultured cells which produce the taxane-type dilterpene at a high rate” (Mitsui Chemicals, Inc., priority 1993, dated 2002):
# System: cultured cells of Taxus baccata LINN
# Assay: Growth rate and taxane yield, 21-day shake culture of Taxus baccata cells with heavy metal compound, amine, antiethylene agent or Ethrel added
# Format: cell-based
# Description: (§1) One gram (fresh weight) of the callus was inoculated to an Erlenmeyer flask containing 20 ml of liquid Woody Plant Medium to which the above-mentioned component was added to give the same concentration and shake culture was carried out with a rotary shaker (amplification of 25 mm, 100 rpm) and the callus was subcultured in every 21 days to accelerate the growth rate thereof.
# Then shake culture was carried out at 25° C. for 21 days.
# After completing the culture, cultured cells of Taxus baccata LINN were harvested by filtration and lyophilized, then the dry weight was measured to obtain the growth rate thereof. Taxane-type diterpenes were extracted from the dried callus with methanol and the like, and they were determined by comparing with standard taxol, cephalomannine, and baccatin III using high performance liquid chromatography to measure the yields of the taxane-type diterpenes.
# as §1
# One gram (fresh weight) of the cultured cells thus obtained was inoculated to an Erlenmeyer flask containing 20 ml of liquid Woody Plant Medium to which the above-mentioned component had been added to give the same concentration, then spermidine was added to it as amine to give the final concentration of 10^−9M-1M. Then shake culture was carried out at 25° C. for 21 days.
# After completing the culture, cultured cells of Taxus baccata LINN were harvested by filtration and lyophilized, then the dry weight was measured to obtain the growth rate thereof. Taxane-type diterpenes were extracted from the dried cells with methanol and the like, and they were determined by comparing with standard taxol, cephalomannine, and baccatin III using high performance liquid chromatography to measure the yields of the taxane-type diterpene.
# One gram (fresh weight) of the callus was inoculated to an Erlenmeyer flask containing 20 ml of liquid Woody Plant Medium to which the above-mentioned component had been added to give the same concentration and shake culture was carried out with a rotary shaker (amplification of 25 mm, 100 rpm) and the callus was subcultured in every 21 days to accelerate the growth rate thereof.
# One gram (fresh weight) of the cultured cells thus obtained was inoculated to an Erlenmeyer flask containing 20 ml of liquid Woody Plant Medium to which the above-mentioned component had been added to give the same concentration, and shake culture was carried out at 25° C. for 14 days.
# [1] = Ethrel 10^−3 M added at the start (0 day), no acetylsalicylic acid, oxygen 20%
# [2] = Ethrel 10^−3 M added at the start (0 day), no acetylsalicylic acid, oxygen 20%, cell + medium
# [3] = Ethrel 10^−3 M added at the 14th day, no acetylsalicylic acid, oxygen 20%
# [4] = Ethrel 10^−3 M added at the 14th day, no acetylsalicylic acid, oxygen 20%, cell + medium
# [5] = 1 M added on 14th day, 7 more days
# [6] = 10^−1 M added on 14th day, 7 more days
# [7] = 10^−2 M added on 14th day, 7 more days
# [8] = 10^−3 M added on 14th day, 7 more days
# [9] = 10^−4 M added on 14th day, 7 more days
# [10] = 10^−5 M added on 14th day, 7 more days
# [11] = 10^−6 M added on 14th day, 7 more days
# [12] = 10^−7 M added on 14th day, 7 more days
# [13] = 10^−8 M added on 14th day, 7 more days
# [14] = 10^−9 M added on 14th day, 7 more days
# [15] = 2×10^−6 M added 5 times at 4 days' intervals from day 0, total 10^−5 M
# [16] = 10^−1 M added at start, 21 days
# [17] = 10^−2 M added at start, 21 days
# [18] = 10^−3 M added at start, 21 days
# [19] = 10^−4 M added at start, 21 days
# [20] = 10^−5 M added at start, 21 days
# [21] = 10^−5 M added on 7th day, 14 more days
# [22] = 10^−5 M added on 18th day, 3 more days
# [23] = 10^−5 M at start + methyl jasmonate 10^−4 M on 14th day
# [24] = 10^−5 M at start + methyl jasmonate 10^−4 M on 14th day, oxygen 10% in the gas phase
# [25] = 10^−5 M at start, oxygen 10% in the gas phase
# [26] = 10^−6 M added at start, 21 days
# [27] = 10^−7 M added at start, 21 days
# [28] = 10^−8 M added at start, 21 days
# [29] = 10^−9 M added at start, 21 days
smiles,measurement,setting,value
O=P(O)(O)CCCl [Reference Example 1],growth rate,[1],2.7 times
same,total yield of taxane,[1],0.40 mg/L
same,yield of baccatin III,[2],0.12 mg/L
same,yield of cephalomannine,[2],0.14 mg/L
same,yield of taxol,[2],0.14 mg/L
O=P(O)(O)CCCl [Reference Example 2],growth rate,[3],2.7 times
same,total yield of taxane,[3],0.30 mg/L
same,yield of baccatin III,[4],0.05 mg/L
same,yield of cephalomannine,[4],0.16 mg/L
same,yield of taxol,[4],0.09 mg/L
"Cl.NOCC(=O)O [aminooxyacetic acid, aminoxyacetic acid hydrochloride]",growth rate,[5],0.9 times
same,total yield of taxane,[5],0 mg/L
same,yield of baccatin III,[5],0 mg/L
same,yield of cephalomannine,[5],0 mg/L
same,yield of taxol,[5],0 mg/L
same,growth rate,[6],1.2 times
same,total yield of taxane,[6],1.03 mg/L
same,yield of baccatin III,[6],0.33 mg/L
same,yield of cephalomannine,[6],0.26 mg/L
same,yield of taxol,[6],0.44 mg/L
same,growth rate,[7],1.5 times
same,total yield of taxane,[7],1.93 mg/L
same,yield of baccatin III,[7],0.32 mg/L
same,yield of cephalomannine,[7],0.71 mg/L
same,yield of taxol,[7],0.90 mg/L
same,growth rate,[8],1.5 times
same,total yield of taxane,[8],3.43 mg/L
same,yield of baccatin III,[8],1.11 mg/L
same,yield of cephalomannine,[8],0.71 mg/L
same,yield of taxol,[8],1.61 mg/L
same,growth rate,[9],1.7 times
same,total yield of taxane,[9],5.80 mg/L
same,yield of baccatin III,[9],1.92 mg/L
same,yield of cephalomannine,[9],1.22 mg/L
same,yield of taxol,[9],2.66 mg/L
same,growth rate,[10],1.7 times
same,total yield of taxane,[10],3.81 mg/L
same,yield of baccatin III,[10],1.30 mg/L
same,yield of cephalomannine,[10],1.16 mg/L
same,yield of taxol,[10],1.35 mg/L
same,growth rate,[11],1.5 times
same,total yield of taxane,[11],3.00 mg/L
same,yield of baccatin III,[11],1.08 mg/L
same,yield of cephalomannine,[11],0.73 mg/L
same,yield of taxol,[11],1.19 mg/L
same,growth rate,[12],1.7 times
same,total yield of taxane,[12],2.33 mg/L
same,yield of baccatin III,[12],0.66 mg/L
same,yield of cephalomannine,[12],0.65 mg/L
same,yield of taxol,[12],1.02 mg/L
same,growth rate,[13],1.8 times
same,total yield of taxane,[13],2.00 mg/L
same,yield of baccatin III,[13],0.61 mg/L
same,yield of cephalomannine,[13],0.62 mg/L
same,yield of taxol,[13],0.77 mg/L
same,growth rate,[14],2.3 times
same,total yield of taxane,[14],1.38 mg/L
same,yield of baccatin III,[14],0.21 mg/L
same,yield of cephalomannine,[14],0.58 mg/L
same,yield of taxol,[14],0.59 mg/L
[Cl][Co][Cl] [cobalt chloride],growth rate,"1 M added at start, 21 days",0.6 times
same,total yield of taxane,"1 M added at start, 21 days",0 mg/L
same,yield of baccatin III,"1 M added at start, 21 days",0 mg/L
same,yield of cephalomannine,"1 M added at start, 21 days",0 mg/L
same,yield of taxol,"1 M added at start, 21 days",0 mg/L
same,growth rate,[15],2.6 times
same,total yield of taxane,[15],27.66 mg/L
same,yield of baccatin III,[15],5.32 mg/L
same,yield of cephalomannine,[15],6.58 mg/L
same,yield of taxol,[15],15.76 mg/L
same,growth rate,[16],0.8 times
same,total yield of taxane,[16],1.08 mg/L
same,yield of baccatin III,[16],0.11 mg/L
same,yield of cephalomannine,[16],0.42 mg/L
same,yield of taxol,[16],0.55 mg/L
same,growth rate,[17],1.4 times
same,total yield of taxane,[17],2.14 mg/L
same,yield of baccatin III,[17],0.44 mg/L
same,yield of cephalomannine,[17],0.78 mg/L
same,yield of taxol,[17],0.92 mg/L
same,growth rate,[18],2.2 times
same,total yield of taxane,[18],7.98 mg/L
same,yield of baccatin III,[18],1.57 mg/L
same,yield of cephalomannine,[18],2.03 mg/L
same,yield of taxol,[18],4.38 mg/L
same,growth rate,[19],2.7 times
same,total yield of taxane,[19],10.02 mg/L
same,yield of baccatin III,[19],1.64 mg/L
same,yield of cephalomannine,[19],3.46 mg/L
same,yield of taxol,[19],4.92 mg/L
same,growth rate,[20],3.2 times
same,total yield of taxane,[20],28.29 mg/L
same,yield of baccatin III,[20],5.68 mg/L
same,yield of cephalomannine,[20],6.50 mg/L
same,yield of taxol,[20],16.11 mg/L
same,growth rate,[21],3.2 times
same,total yield of taxane,[21],20.56 mg/L
same,yield of baccatin III,[21],4.36 mg/L
same,yield of cephalomannine,[21],5.98 mg/L
same,yield of taxol,[21],10.22 mg/L
same,growth rate,[10],3.1 times
same,total yield of taxane,[10],13.48 mg/L
same,yield of baccatin III,[10],2.01 mg/L
same,yield of cephalomannine,[10],4.37 mg/L
same,yield of taxol,[10],7.10 mg/L
same,growth rate,[22],2.9 times
same,total yield of taxane,[22],3.60 mg/L
same,yield of baccatin III,[22],1.17 mg/L
same,yield of cephalomannine,[22],1.11 mg/L
same,yield of taxol,[22],1.32 mg/L
same,growth rate,[23],2.5 times
same,total yield of taxane,[23],62.78 mg/L
same,yield of baccatin III,[23],23.00 mg/L
same,yield of cephalomannine,[23],9.46 mg/L
same,yield of taxol,[23],30.32 mg/L
same,growth rate,[24],2.4 times
same,total yield of taxane,[24],74.83 mg/L
same,yield of baccatin III,[24],25.85 mg/L
same,yield of cephalomannine,[24],15.21 mg/L
same,yield of taxol,[24],33.77 mg/L
same,growth rate,[25],2.7 times
same,total yield of taxane,[25],52.24 mg/L
same,yield of baccatin III,[25],17.61 mg/L
same,yield of cephalomannine,[25],7.99 mg/L
same,yield of taxol,[25],26.64 mg/L
same,growth rate,[26],2.4 times
same,total yield of taxane,[26],16.36 mg/L
same,yield of baccatin III,[26],2.25 mg/L
same,yield of cephalomannine,[26],5.79 mg/L
same,yield of taxol,[26],8.32 mg/L
same,growth rate,[27],2.6 times
same,total yield of taxane,[27],1.08 mg/L
same,yield of baccatin III,[27],0.16 mg/L
same,yield of cephalomannine,[27],0.63 mg/L
same,yield of taxol,[27],0.29 mg/L
same,growth rate,[28],2.6 times
same,total yield of taxane,[28],1.05 mg/L
same,yield of baccatin III,[28],0.15 mg/L
same,yield of taxol,[28],0.29 mg/L
same,growth rate,[29],2.5 times
same,total yield of taxane,[29],0.98 mg/L
same,yield of baccatin III,[29],0.15 mg/L
same,yield of cephalomannine,[29],0.56 mg/L
same,yield of taxol,[29],0.27 mg/L
C=C [ethylene],production of the taxane-type diterpene by the tissues and the cells,,greatly inhibits
